Test results reported in US20120190669A1, “OXINDOLE COMPOUNDS” (CYLENE PHARMACEUTICALS, INC., priority 2008, published 2012).

Tested on: K-562
Assay: Alamar Blue cell proliferation assay, K-562
Assay type: cell-based
Settings: Homo sapiens, K562, Table 5, read-out: AB: K-562 IC50
Method: (§1) A representative cell-proliferation assay protocol using Alamar Blue dye (stored at 4° C., use 20 ul per well) is described hereafter.
(§2) 96-Well Plate Setup and Compound Treatment
(§3) a. Split and trypsinize cells.
(§4) b. Count cells using hemocytometer.
(§5) c. Plate 4,000-5,000 cells per well in 100 μl of medium and seed into a 96-well plate according to the following plate layout. Add cell culture medium only to wells B10 to B12. Wells B1 to B9 have cells but no compound added.
(§6) d. Add 100 μl of 2× drug dilution to each well in a concentration shown in the plate layout above. At the same time, add 100 μl of media into the control wells (wells 1310 to B12). Total volume is 200 μl/well.
(§7) e. Incubate four (4) days at 37° C., 5% CO2 in a humidified incubator.
(§8) f. Add 20 μl Alamar Blue reagent to each well.
(§9) g. Incubate for four (4) hours at 37° C., 5% CO2 in a humidified incubator.
(§10) h. Record fluorescence at an excitation wavelength of 544 nm and emission wavelength of 590 nm using a microplate reader.
(§11) In the assays, cells are cultured with a test compound for approximately four days, the dye is then added to the cells and fluorescence of […] dye is detected after approximately four hours. Different types of cells can be utilized in the assays (e.g., HCT-116 human colorectal carcinoma cells, PC-3 human prostatic cancer cells and MiaPaca human pancreatic carcinoma cells).

IC50 [nM]	SMILES
3120	CN1CCCC(NC(=O)c2cccc(-c3coc(/C=C4/C(=O)Nc5ccc(F)cc54)c3)c2)C1 (centres unmarked) [drawing 249]
941	CCN1CCCC1CNC(=O)c1cccc(-c2coc(/C=C3/C(=O)Nc4ccc(F)cc43)c2)c1 (centres unmarked) [drawing 250]
77	CN(C)C1CCN(C(=O)c2cccc(-c3coc(/C=C4/C(=O)Nc5ccccc54)c3)c2)CC1
2440	CCN(CC)CCNC(=O)c1cccc(-c2coc(/C=C3/C(=O)Nc4ccc(F)cc43)c2)c1 [drawing 254]
> 10000	O=C1Nc2ccccc2/C1=C\c1cc(-c2cccc(C(=O)NCc3ccncc3)c2)co1

Tested on: MV-4-11
Assay: Alamar Blue cell proliferation assay, MV-4-11
Assay type: cell-based
Settings: Homo sapiens, MV4-11, Table 5, read-out: AB: MV-4-11 IC50
Method: as §1, §2, §3, §4, §5, §6, §7, §8, §9, §10, §11

IC50 [nM]	SMILES
1010	CN1CCCC(NC(=O)c2cccc(-c3coc(/C=C4/C(=O)Nc5ccc(F)cc54)c3)c2)C1 (centres unmarked) [drawing 249]
485	CCN1CCCC1CNC(=O)c1cccc(-c2coc(/C=C3/C(=O)Nc4ccc(F)cc43)c2)c1 (centres unmarked) [drawing 250]
2140	CN(C)C1CCN(C(=O)c2cccc(-c3coc(/C=C4/C(=O)Nc5ccccc54)c3)c2)CC1
271	CCN(CC)CCNC(=O)c1cccc(-c2coc(/C=C3/C(=O)Nc4ccc(F)cc43)c2)c1 [drawing 254]
168	O=C1Nc2ccccc2/C1=C\c1cc(-c2cccc(C(=O)NCc3ccncc3)c2)co1

Target: T1, recombinant human FLT-3 (Homo sapiens, UniProt P36888)
T1 sequence (P36888 27-993): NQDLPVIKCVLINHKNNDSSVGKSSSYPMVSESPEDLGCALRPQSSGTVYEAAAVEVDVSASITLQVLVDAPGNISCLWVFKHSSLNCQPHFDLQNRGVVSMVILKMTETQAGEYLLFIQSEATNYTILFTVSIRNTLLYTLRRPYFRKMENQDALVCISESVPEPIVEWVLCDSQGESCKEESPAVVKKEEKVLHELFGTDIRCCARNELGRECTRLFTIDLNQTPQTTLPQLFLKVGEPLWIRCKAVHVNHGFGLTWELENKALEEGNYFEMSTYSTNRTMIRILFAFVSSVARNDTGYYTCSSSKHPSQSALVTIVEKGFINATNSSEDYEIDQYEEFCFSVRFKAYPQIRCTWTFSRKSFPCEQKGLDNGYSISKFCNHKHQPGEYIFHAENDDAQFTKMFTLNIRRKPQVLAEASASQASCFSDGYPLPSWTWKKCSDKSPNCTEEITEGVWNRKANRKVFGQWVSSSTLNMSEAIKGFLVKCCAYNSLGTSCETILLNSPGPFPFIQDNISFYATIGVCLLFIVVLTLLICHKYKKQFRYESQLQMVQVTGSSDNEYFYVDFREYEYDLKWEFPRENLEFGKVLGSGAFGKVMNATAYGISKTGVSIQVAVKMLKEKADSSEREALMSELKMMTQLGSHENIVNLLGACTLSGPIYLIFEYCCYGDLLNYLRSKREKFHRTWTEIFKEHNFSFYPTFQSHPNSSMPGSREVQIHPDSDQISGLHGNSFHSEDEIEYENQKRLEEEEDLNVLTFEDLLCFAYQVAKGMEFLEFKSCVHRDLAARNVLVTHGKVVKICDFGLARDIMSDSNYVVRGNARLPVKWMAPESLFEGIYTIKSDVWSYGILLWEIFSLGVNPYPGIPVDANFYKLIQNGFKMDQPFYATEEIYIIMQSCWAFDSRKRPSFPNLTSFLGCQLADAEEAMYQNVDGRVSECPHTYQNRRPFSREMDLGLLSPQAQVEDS
Assay: FLT-3 kinase activity, cell free in vitro assay
Assay type: biochemical
Settings: Table 7; 10 uM ATP; read-out: FLT3_RB: IC50

SMILES	IC50 [nM]
O=C1Nc2ccc(F)cc2/C1=C\c1ccc(-c2cccc(C(=O)NCc3ccncc3)c2)o1 [drawing 264]	147
Cn1cncc1CNC(=O)c1cccc(-c2ccc(/C=C3/C(=O)Nc4ccc(F)cc43)o2)c1 [drawing 265]	100
O=C1Nc2ccccc2/C1=C\c1ccc(-c2ccc(Cl)c(C(=O)NCCN3CCCC3)c2)o1 [drawing 261]	211

Now from value to molecule:

IC50 [nM]	SMILES
306	O=C1Nc2ccc(F)cc2/C1=C\c1ccc(-c2cccc(C(=O)NC3CC3)c2)o1 [drawing 263]
99	O=C1Nc2ccccc2/C1=C\c1ccc(-c2ccc(C(=O)NCCN3CCCC3)cc2)o1

Target: recombinant PIM-1 (Homo sapiens, UniProt P11309)
Assay: PIM-1 kinase assay (radiometric, 15 uM ATP, DMSO 4%)
Assay type: biochemical
Settings: Table 5; compound at 500 nM; read-out: PIM1: % inh 500 nM

Sequence of recombinant PIM-1 (P11309 whole entry): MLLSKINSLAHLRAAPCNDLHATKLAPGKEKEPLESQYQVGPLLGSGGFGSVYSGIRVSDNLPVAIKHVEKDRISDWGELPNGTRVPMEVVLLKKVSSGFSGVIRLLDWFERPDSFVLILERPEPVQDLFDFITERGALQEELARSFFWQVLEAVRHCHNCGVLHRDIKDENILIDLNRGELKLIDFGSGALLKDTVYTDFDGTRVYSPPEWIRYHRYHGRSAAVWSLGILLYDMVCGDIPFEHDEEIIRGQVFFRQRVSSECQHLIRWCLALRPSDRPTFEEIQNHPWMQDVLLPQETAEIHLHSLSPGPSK

inhibition at 0.5 µM [%]	SMILES
6.11	CN1CCCC(NC(=O)c2cccc(-c3coc(/C=C4/C(=O)Nc5ccc(F)cc54)c3)c2)C1 (centres unmarked) [drawing 249]
17.1	CCN1CCCC1CNC(=O)c1cccc(-c2coc(/C=C3/C(=O)Nc4ccc(F)cc43)c2)c1 (centres unmarked) [drawing 250]
-38.8	CN(C)C1CCN(C(=O)c2cccc(-c3coc(/C=C4/C(=O)Nc5ccccc54)c3)c2)CC1
11.5	CCN(CC)CCNC(=O)c1cccc(-c2coc(/C=C3/C(=O)Nc4ccc(F)cc43)c2)c1 [drawing 254]
-4.22	O=C1Nc2ccccc2/C1=C\c1cc(-c2cccc(C(=O)NCc3ccncc3)c2)co1

Tested on: PC-3 human prostatic cancer cells
Assay: Alamar Blue cell proliferation assay, PC3
Assay type: cell-based
Settings: Table 5, read-out: AB: PC3 IC50
Method: as §1, §2, §3, §4, §5, §6, §7, §8, §9, §10, §11

IC50 [nM]	SMILES
7000	CN1CCCC(NC(=O)c2cccc(-c3coc(/C=C4/C(=O)Nc5ccc(F)cc54)c3)c2)C1 (centres unmarked) [drawing 249]
> 10000	CCN1CCCC1CNC(=O)c1cccc(-c2coc(/C=C3/C(=O)Nc4ccc(F)cc43)c2)c1 (centres unmarked) [drawing 250]
> 10000	CN(C)C1CCN(C(=O)c2cccc(-c3coc(/C=C4/C(=O)Nc5ccccc54)c3)c2)CC1
> 10000	CCN(CC)CCNC(=O)c1cccc(-c2coc(/C=C3/C(=O)Nc4ccc(F)cc43)c2)c1 [drawing 254]
> 10000	O=C1Nc2ccccc2/C1=C\c1cc(-c2cccc(C(=O)NCc3ccncc3)c2)co1

Tested on: HCT-116 human colorectal carcinoma cells
Assay: Alamar Blue cell proliferation assay, HCT-116
Assay type: cell-based
Settings: Table 5, read-out: AB: HCT-116 IC50
Method: as §1, §2, §3, §4, §5, §6, §7, §8, §9, §10, §11

IC50 [nM]	SMILES
4650	CN1CCCC(NC(=O)c2cccc(-c3coc(/C=C4/C(=O)Nc5ccc(F)cc54)c3)c2)C1 (centres unmarked) [drawing 249]
5230	CCN1CCCC1CNC(=O)c1cccc(-c2coc(/C=C3/C(=O)Nc4ccc(F)cc43)c2)c1 (centres unmarked) [drawing 250]
7010	CN(C)C1CCN(C(=O)c2cccc(-c3coc(/C=C4/C(=O)Nc5ccccc54)c3)c2)CC1
3600	CCN(CC)CCNC(=O)c1cccc(-c2coc(/C=C3/C(=O)Nc4ccc(F)cc43)c2)c1 [drawing 254]
> 10000	O=C1Nc2ccccc2/C1=C\c1cc(-c2cccc(C(=O)NCc3ccncc3)c2)co1

Target: recombinant human PIM2 (Homo sapiens, UniProt Q9P1W9)
Assay: PIM-2 assay (radiometric)
Assay type: biochemical
Settings: Table 6; 15 μm ATP; read-out: PIM2: IC50 (15 μm ATP)
Method: Test compounds dissolved and diluted in DMSO ([…]) were added to a reaction mixture comprising […] of 5× Reaction Buffer (40 mM MOPS pH 7.0, 5 mM EDTA), […] of recombinant human PIM2 solution (4 ng PIM-2 dissolved in dilution buffer (20 mM MOPS pH 7.0; EDTA 1 mM; 5% Glycerol; 0.01% Brij 35; […]; […] 2-mercaptoethanol; 1 mg/ml BSA)) and 8 ul of water. Reactions were initiated by the addition of 10 ul of ATP Solution (49% (15 mM MgCl2; 75 uM ATP) 1% ([γ-33P]ATP: Stock 1 mCi/100 μl; 3000 Ci/mmol (Perkin Elmer)) and 10 ul of substrate peptide solution ([…], dissolved in water at a concentration of 1 mM), Reactions were maintained for 10 min at 30° C. The reactions were quenched with 100 ul of 0.75% Phosphoric acid, then transferred to and filtrered through a Phosphocellulose filter plate (Millipore, MSPH-N6B-50). After washing each well 4 times with 0.75% Phosphoric acid, scintillation fluid (20 uL) was added to each well and the residual radioactivity was measured using a Wallac […] counter.

Sequence of recombinant human PIM2 (Q9P1W9 whole entry): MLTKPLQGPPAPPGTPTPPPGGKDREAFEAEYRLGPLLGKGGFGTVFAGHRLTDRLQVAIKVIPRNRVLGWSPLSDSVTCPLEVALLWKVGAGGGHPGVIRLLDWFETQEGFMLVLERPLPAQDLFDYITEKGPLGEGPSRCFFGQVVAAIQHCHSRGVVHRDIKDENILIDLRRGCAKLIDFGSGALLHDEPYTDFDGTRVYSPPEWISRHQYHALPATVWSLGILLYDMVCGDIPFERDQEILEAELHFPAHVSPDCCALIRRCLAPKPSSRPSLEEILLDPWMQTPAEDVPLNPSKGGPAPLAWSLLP

IC50 [nM]	SMILES
< 1000	CCN(CC)CCNC(=O)c1ccc(-c2ccc(/C=C3/C(=O)Nc4ccc(Cl)cc43)o2)cc1 [drawing 260]
< 1000	C/C(=C1\C(=O)Nc2ccc(Cl)cc21)c1ccc(-c2ccc(C(=O)N3CCCN(C)CC3)cc2)o1 [drawing 258]
< 1000	CN1CCCN(C(=O)c2ccc(-c3ccc(/C=C4/C(=O)Nc5ccc(Cl)cc54)o3)cc2)CC1 [drawing 259]

Tested on: MiaPaca human pancreatic carcinoma cells
Assay: Alamar Blue cell proliferation assay, MiaPaCa
Assay type: cell-based
Settings: MIA PaCa-2, Table 5, read-out: AB: MiaPaCa IC50
Method: as §1, §2, §3, §4, §5, §6, §7, §8, §9, §10, §11

IC50 [nM]	SMILES
> 10000	CN1CCCC(NC(=O)c2cccc(-c3coc(/C=C4/C(=O)Nc5ccc(F)cc54)c3)c2)C1 (centres unmarked) [drawing 249]
> 10000	CCN1CCCC1CNC(=O)c1cccc(-c2coc(/C=C3/C(=O)Nc4ccc(F)cc43)c2)c1 (centres unmarked) [drawing 250]
9370	CN(C)C1CCN(C(=O)c2cccc(-c3coc(/C=C4/C(=O)Nc5ccccc54)c3)c2)CC1
> 10000	CCN(CC)CCNC(=O)c1cccc(-c2coc(/C=C3/C(=O)Nc4ccc(F)cc43)c2)c1 [drawing 254]
> 10000	O=C1Nc2ccccc2/C1=C\c1cc(-c2cccc(C(=O)NCc3ccncc3)c2)co1
